From patent publication US8354399B2, “Substituted indazole derivatives active as kinase inhibitors” (Nerviano Medical Sciences S.R.L., priority 2008, dated 2013) come the findings set out here.

Broadly, the IC50 is the midpoint of a concentration-inhibition curve. Read a high IC50 as weaker potency.

In experiment [1] the target is T1, ALK (Homo sapiens, UniProt Q9UM73).
T1 construct: made in house; host or cells: Sf21 insect cells (baculovirus)
Kind of experiment: Biochemical assay for inhibitors of ALK kinase activity. The source says:
Preparation of ALK Cytoplasmic Domain for Use in Biochemical Assay
ALK cytoplasmic domain, corresponding to the residue 1060-1620 (the numbers of the amino acid residues refer to the Genbank accession number NP 004295.2) was PCR amplified from a human testis cDNA library.
For cloning purposes, the oligonucleotides included attB sites in order to obtain an attB-flanked PCR product suitable for cloning using the Gateway technology (Invitrogen). Furthermore, for purification purposes, forward primer included a PreScission cleavage site (Amersham Biosciences). The resulting PCR product was cloned in the baculovirus expression vector pVL1393 (Invitrogen) Gateway-modified. For expression and purification purpose, a GST tag was added N-terminal to the ALK cytoplasmic domain. Cloning was performed according to the protocols described in the Gateway manual (Invitrogen).
Biochemical Assay for Inhibitors of ALK Kinase Activity
ALK enzyme needs pre-activation in order to linearize reaction kinetics.
Kinase buffer was composed of 50 mM HEPES pH 7.5 containing 1 mM MnCl2, 5 mM MgCl2, 1 mM DTT, 3 microM Na3VO4, and 0.2 mg/mL BSA. 3× KB is buffer of the same composition and pH as KB, but with three times the concentration of each component.
The kinase assay was run with a final enzyme concentration of 20 nM, in the presence of 8 microM ATP, 1 nM ^33P-γ-ATP and 2 microM MBP. The MPB was purchased from Sigma-Aldrich, St. Louis, Mo., USA.

Experiment [2] addresses T2, IGF-1R (Homo sapiens, UniProt P08069).
T2 construct: amino acid residues 960-1367 of precursor protein; made in house; host or cells: H5 insect cells (baculovirus; virus generated in Sf21)
Nature of the experiment: Biochemical assay for inhibitors of IGF-1R kinase activity. The procedure:
Preparation of IGF-1R for Use in Biochemical Assay
Human cDNA was used as template for amplification by polymerase chain reaction (PCR) of the predicted cytoplasmic portion of IGF-1R (amino acid residues 960-1367 of precursor protein; see NCBI Entrez Protein Accession #P08069) which includes the entire kinase domain. PCR was conducted using the forward primer sequence
Biochemical Assay for Inhibitors of IGF-1R Kinase Activity
The inhibitory activity of putative kinase inhibitors and the potency of selected compounds were determined using a trans-phosphorylation assay.
A specific substrate was incubated with the kinase in appropriate buffer conditions in the presence of ATP traced with ^33P-γ-ATP (gamma phosphate-labeled, Redivue™ Code Number AH9968, 1000-3000Ci/mmole, Amersham Biosciences Piscataway, N.J., USA), optimal cofactors and test compound.
At the end of the phosphorylation reaction, more than 98% cold and radioactive ATP were captured by an excess of Dowex ion exchange resin. The resin was allowed to settle to the bottom of reaction wells by gravity. Supernatant, containing substrate peptide, was subsequently withdrawn and transferred into a counting plate, and radioactivity (corresponding to phosphate incorporated into peptide) was evaluated by β-counting.
Kinase buffer was composed of 50 mM HEPES pH 7.9 containing 3 mM MnCl2, 1 mM DTT, 3 microM Na3VO4, and 0.2 mg/mL BSA. 3× KB is buffer of the same composition and pH as KB, but with three times the concentration of each component.
Prior to starting the kinase inhibition assay, IGF-1R was pre-phosphorylated in order to linearize reaction kinetics. To achieve this, the desired total quantity of enzyme was prepared at an enzyme concentration of 360 nM in KB containing 100 microM ATP, and this preparation was incubated for 30 min at 28° C. 3× Enzyme Mix was obtained by diluting this preactivated enzyme 20-fold in 3× KB. […]

Experiment [3] addresses T3, JAK2 (Homo sapiens, UniProt O60674).
T3 construct: The assay has been performed using the commercially available JAK2 kinase domain; purchased Invitrogen, Eugene, Oreg
Kind of experiment: Biochemical assay for inhibitors of JAK2 kinase activity. From the text:
Biochemical Assay for Inhibitors of JAK2 Kinase Activity
General Principle—A specific JAK2 peptide substrate is trans-phosphorylated by JAK2 kinase in the presence of ATP traced with ^33P-γ-ATP. At the end of the phosphorylation reaction, 98% of the cold and radioactive ATP is captured by an excess of dowex ion exchange resin that eventually settles by gravity to the bottom of the reaction plate. The supernatant is subsequently withdrawn and transferred into a counting plate that is then evaluated by β-counting.
JAK2 Kinase Buffer (KB—Kinase buffer was composed of 50 mM HEPES pH 7.5 containing 10 mM MgCl2, 2.5 mM DTT, 10 microM Na3VO4, and 0.2 mg/mL BSA. 3× KB is buffer of the same composition and pH as KB, but with three times the concentration of each component.
Assay conditions—The JAK2 kinase assay was run with a final enzyme concentration of 1 nM, in the presence of 60 microM ATP, 3 nM 33P-γ-ATP and 64 microM of substrate Jaktide (Aminoacid sequence: LPLDKDYYVVREPGQ). The Jaktide was purchased from American Peptide Company (Sunnyvale, Calif.).
Compound Dilution—For IC50 determination, test compounds are received as a 1 mM solution in 100% DMSO, distributed into 96 well plates: compounds are then plated into the first column of a microtiter plate (A1 to G1), 100 μl/well. […]
Another mixing cycle is performed after all the plates are stopped, this time using normal tips: the plates are then allowed to rest for about one hour in order to maximize ATP capture. At this point, 27 μl of the supernatant are transferred into 384-Optiplates (Perkin-Elmer), with 50 μl of Microscint 40 (Perkin-Elmer); after 5 min of orbital shaking the plates are read on a Perkin-Elmer Top Count radioactivity counter.
Data Fitting—Data are analyzed by an internally customized version of the SW package “Assay Explorer” that provides sigmoidal fitting of the ten-dilutions curves for IC50 determination in the secondary assays/hit confirmation routines.

T1 sequence (Q9UM73 1060-1620): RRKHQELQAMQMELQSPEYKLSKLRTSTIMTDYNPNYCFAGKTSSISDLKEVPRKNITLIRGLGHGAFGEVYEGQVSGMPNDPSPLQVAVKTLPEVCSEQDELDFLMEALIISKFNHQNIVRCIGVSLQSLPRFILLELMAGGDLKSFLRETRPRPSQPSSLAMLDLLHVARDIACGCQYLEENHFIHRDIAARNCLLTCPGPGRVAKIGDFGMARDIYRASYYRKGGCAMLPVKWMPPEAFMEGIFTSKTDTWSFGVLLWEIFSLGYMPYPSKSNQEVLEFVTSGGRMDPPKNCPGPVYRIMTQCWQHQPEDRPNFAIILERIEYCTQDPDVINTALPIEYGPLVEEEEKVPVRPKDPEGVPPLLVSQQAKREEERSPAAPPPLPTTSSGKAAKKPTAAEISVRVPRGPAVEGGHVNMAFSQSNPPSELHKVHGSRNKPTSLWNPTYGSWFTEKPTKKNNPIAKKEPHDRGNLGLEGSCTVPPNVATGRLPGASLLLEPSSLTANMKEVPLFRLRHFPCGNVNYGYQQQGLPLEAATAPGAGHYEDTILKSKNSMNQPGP
T3 sequence (O60674 849-1124 limits assumed): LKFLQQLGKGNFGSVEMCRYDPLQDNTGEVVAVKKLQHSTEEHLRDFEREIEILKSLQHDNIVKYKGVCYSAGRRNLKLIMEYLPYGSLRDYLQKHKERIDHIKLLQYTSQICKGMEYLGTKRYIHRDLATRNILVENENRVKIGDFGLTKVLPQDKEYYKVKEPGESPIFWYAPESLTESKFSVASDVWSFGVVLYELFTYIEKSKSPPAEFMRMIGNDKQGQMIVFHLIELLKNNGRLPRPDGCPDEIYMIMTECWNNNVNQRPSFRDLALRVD
T2 sequence (P08069 960-1367): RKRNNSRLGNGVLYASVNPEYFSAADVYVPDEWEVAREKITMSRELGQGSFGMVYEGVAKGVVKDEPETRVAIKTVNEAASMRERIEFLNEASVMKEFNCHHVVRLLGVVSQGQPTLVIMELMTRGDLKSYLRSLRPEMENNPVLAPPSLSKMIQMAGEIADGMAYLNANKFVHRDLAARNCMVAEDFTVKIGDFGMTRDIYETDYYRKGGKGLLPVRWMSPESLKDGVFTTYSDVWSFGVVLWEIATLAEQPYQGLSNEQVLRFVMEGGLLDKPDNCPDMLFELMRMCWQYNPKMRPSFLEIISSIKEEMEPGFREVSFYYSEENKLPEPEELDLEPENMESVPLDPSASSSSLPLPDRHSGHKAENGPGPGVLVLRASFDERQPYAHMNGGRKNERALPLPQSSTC

On to `CN1CCN(c2ccc(C(=O)Nc3n[nH]c4ccc(OCc5cc(F)cc(F)c5)cc34)c(NC3CCOCC3)c2)CC1` [Cpd. 8, N-{5-[(3,5-difluorobenzyl)oxy]-1H-indazol-3-yl}-4-(4-methylpiperazin-1-yl)-2-(tetrahydro-2H-pyran-4-ylamino)benzamide], for which the figures for the IC50 in experiment [1], in experiment [2] and in experiment [3] were 0.02 µM, 0.14 µM and 0.02 µM, respectively.

In the case of `CN1CCN(c2ccc(C(=O)Nc3n[nH]c4ccc(OCc5cc(F)cc(F)c5)cc34)c(NCCF)c2)CC1` [Cpd. 36, N-{5-[(3,5-difluorobenzyl)oxy]-1H-indazol-3-yl}-2-[(2-fluoroethyl)amino]-4-(4-methylpiperazin-1-yl)benzamide], the IC50 in experiment [1] turned out to be 0.01 µM; in experiment [2] it was 0.2 µM; in experiment [3], 0.01 µM.

For `O=C(Nc1n[nH]c2ccc(OCc3cc(F)cc(F)c3)cc12)c1ccccc1` [Ref. compound, reference compound], the IC50 was 1.87 µM in experiment [1], over 10 µM in experiment [2] and 0.22 µM in experiment [3].
